How the values were obtained:
[1] = tested on: corneal epithelium; experiment: Corneal epithelium restoration (experimental data); format: in vivo; conditions: IM862 IM, intranasally or ocular installation
[2] = Post-term women; format: in vivo, human; conditions: IM862 IM or intranasally over 3-5 days, 19 women
Procedure: A total of 19 post-term women and 48 women post-term in the control study were treated.

[3] = Infected patients with icterus (Example 95); format: in vivo, human; conditions: IM862 100 μg 5-10 days, 48 patients
Excerpt: The hematological and immunological indices were normalized.

[4] = Patients with fever, toxic symptoms, jaundice (Example 101); format: in vivo, human; conditions: IM862 IM or intranasally 5-10 days, 39 patients
Excerpt: A total of 39 patients were studied with 27 patient controls. […] Immunological indices were normalized.

[5] = tested on: Candida albicans; experiment: Candida albicans intraperitoneal infection in guinea pigs; format: in vivo
Excerpt: Two groups of guinea pigs were inoculated with Candida albicans by intraperitoneal injection. […] The other group was not treated.
Animals were sacrificed at day 5 and day 10. The peritoneal cavities were examined for signs of inflammation. These signs included number of infectious foci adherent to the omentum, exudate, fibrin deposition, quantitative fungal cultures, and the number of neutrophils, macrophages, and lymphocytes infiltrating the peritoneum.

With Glu-Trp [IM862] the corneal epithelium [1] was “restoration and regeneration of corneal epithelium”, the clinical effect [2] was “effacement of the cervix” and the clinical effect [3] was “normalization of fever”. For the same substance, the clinical effect [4] was “reduction of fever”, the “inflammatory changes in the omentum” value ([5]; after 5 days) was “did not principally differ between the groups” and the quantitative fungal cultures ([5]; after 10 days) was “fewer fungi in the treated animals”. For the same substance, the “inflammatory changes in the omentum” value ([5]; after 10 days, 1 μg/kg per day i.p. for four days) was “less pronounced than in untreated animals”.

— patent US20030198617A1, “Pharmaceutical tryptophan containing dipeptide compositions and methods of use thereof” (priority 1993, published 2003)
